Earlier results in US9968555B2, “Liposomal formulations that form drug nanocrystals after freeze-thaw” (ARADIGM CORPORATION, priority 2014, dated 2018).
≈ marks a conversion by molar mass, not a printed value.

Test system: M. avium

O=C(O)c1cn(C2CC2)c2cc(N3CCNCC3)c(F)cc2c1=O [ciprofloxacin]
minimum inhibitory concentration (MIC): 5 µg/mL (≈ 15.1 µM)
